Data on six compounds can be found in patent US20100016335A1, “NOVEL AMINOPYRIDINE DERIVATIVES HAVING AURORA A SELECTIVE INHIBITORY ACTION” (priority 2006, published 2010).

One experiment has as its target T1, human Aurora A (Homo sapiens, UniProt O14965).
T1 construct: His (N); made in house; host or cells: Escherichia coli BL21-CodonPlus(DE3)-RIL
T1 sequence (O14965 1-403): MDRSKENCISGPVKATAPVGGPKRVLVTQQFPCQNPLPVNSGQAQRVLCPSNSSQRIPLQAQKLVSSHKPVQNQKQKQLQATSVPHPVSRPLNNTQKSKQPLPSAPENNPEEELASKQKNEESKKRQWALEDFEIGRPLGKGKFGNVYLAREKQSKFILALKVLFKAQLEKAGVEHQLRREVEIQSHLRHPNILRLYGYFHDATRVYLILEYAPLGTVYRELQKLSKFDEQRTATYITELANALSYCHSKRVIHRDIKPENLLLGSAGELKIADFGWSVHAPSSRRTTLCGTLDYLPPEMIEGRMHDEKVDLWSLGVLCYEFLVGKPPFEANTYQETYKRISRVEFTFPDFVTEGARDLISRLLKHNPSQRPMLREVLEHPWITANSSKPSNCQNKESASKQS
The experiment in a line: Aurora A inhibitory activity (IMAP fluorescence polarization phosphorylation assay). It is filed as biochemical. As to conditions: 20 μM ATP, 30° C., 120 minutes. From the text: cDNA of N-terminal His-tagged human Aurora A was integrated into an expression vector, which was then highly expressed in Escherichia coli BL21-CodonPlus(DE3)-RIL cells. The Escherichia coli was harvested and lysed, and then the His-tagged human Aurora A protein was applied onto a nickel chelate column and eluted from the column with imidazole. The active fractions were desalted with a desalting column to give a purified enzyme.
For the phosphorylation reaction, the method by Upstate, Inc. [Kinase Profiler™ Assay Protocols] was referred to, and phosphorylation of the substrate was detected using IMAP® technology (Molecular Devices, Co. Ltd.) (Gaudet E W. et. al, J. Biomol. Screen, 8, 164-175 (2003)). Concretely, the phosphorylation reaction and the detection were carried out as follows:
The phosphorylation reaction was conducted using 384 well plate, and the reaction volume was 10 μl/well. The reaction buffer is comprised of 50 mM Tris-chloride buffer (pH 7.4), 15 mM magnesium acetate, and 0.2 mM ethylenediamine-N,N,N′,N′-tetraacetic acid (EDTA). Thereto, the purified Aurora A protein, 100 nM of the peptide substrate, and 20 μM of adenosine 5′-triphosphate (ATP) were added, and then the reaction was carried out at 30° C. for 120 minutes.
Thereafter, in order to terminate and detect the reaction, 30 μl of the IMAP (registered trademark) binding reagent (IMAP Progressive Binding Reagent, R7284) that had been diluted (1:400) in the 1×IMAP binding buffer A (IMAP Progressive Binding Buffer A, 5× stock, R7282) was added to each well. The solution stood still for 60 minutes in the dark, and then fluorescence polarization was measured using a high-end microplate reader (excitation wavelength: 485 nm; emission wavelength: 520 nm).
The compound to be tested was added to the reaction system such that a dilution series of the compound in dimethylsulfoxide (DMSO) was prepared, and then 0.5 μL of this solution was added for the testing to each well. Each control well was provided by adding 0.5 μL of DMSO to the well in place of the DMSO solution containing the compound to be tested.
(In fluorescence polarisation assays a small probe gives low polarisation when free and higher when bound to something large.)

In experiment [1] the target is T2, GST-tagged human Aurora B(AurB)/His-tagged human INCENP complex proteins (Homo sapiens, UniProt Q96GD4).
T2 construct: GST; purchased Carna Biosciences, Inc
As to the kind of experiment: Aurora B inhibitory activity (Method A, IMAP assay kit). It is filed as biochemical. As to conditions: 40 μM ATP, 25° C., 45 minutes. As to the method:
An assay development kit for IMAP (registered trademark) (Aurora B), purchased from Carna Biosciences, Inc., was used for phosphorylation reaction, and the phosphorylation of a substrate was detected using the IMAP technology. […] Using the same, the phosphorylation reaction was conducted in accordance with a partially revised protocol attached to the kit, and then the phosphorylation of the substrate was detected using the IMAP technology.
For the phosphorylation reaction, 384 well plate was used, and the reaction volume was 10 μl/well. The composition of the reaction buffer (assay buffer) is comprised of 20 mM of HEPES buffer (pH 7.4), 0.01% Tween-20, and 2 mM of dithiothreitol (DTT). Thereto, AurB/INCENP complex protein, 100 nM of the substrate, and 40 μM of ATP, and 1 mM of magnesium salt were added, and then the reaction was conducted at 25° C. for 45 minutes. Thereafter, in order to terminate and detect the reaction, 30 μl of the IMAP (registered trademark) binding reagent (IMAP Progressive Binding Reagent, R7284) that had been diluted (1:400) in the 1× IMAP binding buffer A (IMAP Progressive Binding Buffer A, 5× stock, R7282) was added to each well.
The compound to be tested was added to the reaction system such that a dilution series of the compound in DMSO was prepared, and then 0.5 μL of this solution was added for the testing to each well. Each control well was provided by adding 0.5 μL of DMSO to the well in place of the DMSO solution containing the compound to be tested.

The test system of experiment [2] is Human cervical cancer cells (HeLa S3). The experiment in a line: Cell growth inhibitory effect, WST-8 method. It is filed as cell-based. As to conditions: Homo sapiens, 72 h; HeLa S3, three days incubation; read-out: Cell growth inhibitory effect (HeLaS3) (IC50). As to the method: Fetal calf serum (FCS) was purchased from Moregate Biotech, and DMEM medium was purchased from Invitrogen Corp. WST-8 was purchased from Kishida Chemical Co., Ltd.
(§1) Human cervical cancer cells (HeLa S3) were obtained from the American Type Culture Collection (ATCC).
Cells were suspended in a DMEM medium containing 10% FCS, and the cell suspension was dispensed to a 96-well plastic plate at a rate of 750 cells/100 microliters per well. The plate was incubated overnight in 5% CO2-95% air at 37° C. A drug was subjected to graded dilution in dimethylsulfoxide and further diluted with a DMEM medium containing 10% FCS. Then, the dilution was dispensed to the plate on which cells had been disseminated in advance, at a rate of 100 microliters per well. The plate was incubated for further three days in 5% CO2-95% air at 37° C. Cell growth after incubation was measured by the WST-8 method (H. Tominaga, et al., Anal. Commun., 36, 47-50 (1999)). Here, the WST-8 method refers to a method in which 20 microliters of a WST-8 reagent solution is added to each well, incubation is conducted at 37° C. for 60 minutes, the plate is stirred, and the amount of formazan produced is measured by a […] method to determine the inhibitory rate of the drug.
In general terms: Formazan colour is commonly taken as a measure of viable cells.

For experiment [3] the test system is unchanged. As to the kind of experiment: Effect by combined use of drugs in cells (docetaxel), WST-8 method. It is filed as cell-based. As to conditions: HeLa S3, three days; for inhibition at 0.3 µM / inhibition at 1 µM / inhibition at 0.1 µM: Homo sapiens, HeLa S3, 72 h, read-out: Cell growth inhibitory effect by sole administration of the compound of Example (%); for inhibition at 0.3 µM: compound 0.3 μM alone; for inhibition at 1 µM: compound 1.0 μM alone; for inhibition at 0.1 µM: compound 0.1 μM alone. As to the method: Fetal calf serum (FCS) was purchased from Moregate Biotech, DMEM medium from Invitrogen Corp., docetaxel (tradename: Taxere) from Sigma-Aldrich, Inc., and WST-8 from Kishida Chemical Co., Ltd.
as §1
Cells were suspended in a DMEM medium containing 10% FCS, and the cell suspension was dispensed to two 96-well plastic plates at a rate of 750 cells/100 microliters per well. The plates were incubated overnight in 5% CO2-95% air at 37° C. A drug was subjected to graded dilution in dimethylsulfoxide and further diluted with DMSO or with a DMEM medium containing 10% FCS and also containing 0.6 nM docetaxel. Then, the dilutions were each dispensed to one of the plates on which cells had been disseminated in advance, at a rate of 100 microliters per well. The final concentration of docetaxel at this stage was 0.3 nM. Also, the concentrations in the case of sole administration of the compound according to the invention were 0.003, 0.01, 0.03, 0.1, 0.3, 1, 3 and 10 μM. The plates were incubated for further three days in 5% CO2-95% air at 37° C. Cell growth after incubation was measured by the WST-8 method (H. Tominaga, et al., Anal. Commun., 36, 47-50 (1999)). Here, the WST-8 method refers to a method in which 20 microliters of a WST-8 reagent solution is added to each well, incubation is conducted at 37° C. for 60 minutes, the plate is stirred, and the amount of formazan produced is measured by a colorimetric method to determine the inhibitory rate of the drug. The growth inhibitory effects of docetaxel and of the compound according to the invention were determined, with the value obtained in sole treatment of DMSO being defined as 0%.

Setting [4] is: compound 0.3 μM + docetaxel 0.3 nM.
The mark [5] stands for this setting: compound 1.0 μM + docetaxel 0.3 nM.
[6] abbreviates: compound 0.1 μM + docetaxel 0.3 nM.

Structures can show the parent of a compound that is named as a salt.

The IC50 is the concentration needed to halve the response being measured.

T2 sequence (Q96GD4 whole entry): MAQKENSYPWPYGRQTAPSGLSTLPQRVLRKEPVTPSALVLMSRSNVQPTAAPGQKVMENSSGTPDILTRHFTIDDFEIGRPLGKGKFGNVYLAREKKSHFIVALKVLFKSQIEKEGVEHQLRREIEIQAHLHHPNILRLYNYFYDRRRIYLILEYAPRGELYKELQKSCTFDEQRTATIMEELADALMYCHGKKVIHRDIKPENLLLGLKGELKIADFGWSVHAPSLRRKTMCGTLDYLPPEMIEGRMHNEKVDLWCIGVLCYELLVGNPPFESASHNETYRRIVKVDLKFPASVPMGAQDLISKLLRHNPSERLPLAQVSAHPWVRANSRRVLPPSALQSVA
T2 sequence (Q9NQS7 803-916 partner limits assumed): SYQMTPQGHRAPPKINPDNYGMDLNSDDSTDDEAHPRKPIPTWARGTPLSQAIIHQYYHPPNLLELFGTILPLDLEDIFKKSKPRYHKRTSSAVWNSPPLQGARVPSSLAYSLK

Regarding `Cl.O=C(O)[C@]1(Cc2cccc(Nc3nccs3)n2)CC[C@@H](Oc2cccc(Cl)c2Cl)CC1` [Example 6, trans-4-(2,3-dichlorophenoxy)-1-((6-(1,3-thiazol-2-ylamino)pyridin-2-yl)methyl)cyclohexanecarboxylic acid hydrochloride], the values for the concentration for half-maximal inhibition (IC50) (at human Aurora A; in experiment [1]; in experiment [2]) were 0.07 nM, 37 nM and 1930 nM, respectively. In addition, the inhibition at 0.3 µM in experiment [3] is 7.2%. The inhibition at 1 µM in experiment [3] came to 25.6%. Also, the figures for the “Cell growth inhibitory effect by combined administration of docetaxel and the compound of Example (%)” value (“Cell growth inhibitory effect … (%)” for short) in experiment [3] (setting [4]) and in experiment [3] (setting [5]) were 70.0% and 87.0%, respectively.

Turning to `O=C(O)[C@]1(Cc2cccc(Nc3nccs3)n2)CC[C@@H](Sc2cccc(Cl)c2Cl)CC1` [Example 30, trans-4-((2,3-dichlorophenyl)thio)-1-((6-(1,3-thiazol-2-ylamino)pyridin-2-yl)methyl)cyclohexanecarboxylic acid trifluoroacetate], the IC50 against human Aurora A was 0.08 nM; in experiment [1] it was 39 nM; in experiment [2] it was 340 nM. Moreover, the inhibition at 0.1 µM in experiment [3] came to 28.3%. In experiment [3], the inhibition at 0.3 µM worked out at 53.4%. The “Cell growth inhibitory effect … (%)” value in experiment [3] (setting [6]) came out at 81.2%; in experiment [3] (setting [4]) it was 92.0%.

In the case of `Cl.O=C(O)[C@]1(Cc2cccc(Nc3nccs3)n2)CC[C@@H](Oc2cccc(C(F)(F)F)c2F)CC1` [Example 4, trans-4-(2-fluoro-3-(trifluoromethyl)phenoxy)-1-((6-(1,3-thiazol-2-ylamino)pyridin-2-yl)methyl)cyclohexanecarboxylic acid hydrochloride], the IC50 against human Aurora A was determined as 0.11 nM; in experiment [1] it was 32 nM; in experiment [2] it was 830 nM. Further, in experiment [3], the inhibition at 0.3 µM came to 22.9%. Besides, the inhibition at 1 µM in experiment [3] turned out to be 52.9%. For the same compound, the figures for the “Cell growth inhibitory effect … (%)” value in experiment [3] (setting [4]) and in experiment [3] (setting [5]) were 88.6% and 93.8%, respectively.

Regarding `O=C(O)[C@]1(Cc2cccc(Nc3cc[nH]n3)n2)CC[C@@H](Sc2cccc(Cl)c2Cl)CC1` [Example 33, trans-4-((2,3-dichlorophenyl)thio)-1-((6-(1H-pyrazol-3-ylamino)pyridin-2-yl)methyl)cyclohexanecarboxylic acid trifluoroacetate], the values for the 50% inhibitory concentration (IC50) (on human Aurora A; in experiment [1]; in experiment [2]) were 0.13 nM, 210 nM and 2220 nM, respectively. In experiment [3], the inhibition at 0.3 µM was determined as 0.3%. Moreover, in experiment [3], the inhibition at 1 µM was 23.4%. In addition, the “Cell growth inhibitory effect … (%)” value in experiment [3] (setting [4]) was found to be 75.5%; in experiment [3] (setting [5]) it was 91.3%.

In the case of `CONC(=O)[C@]1(Cc2cccc(Nc3nccs3)n2)CC[C@@H](Oc2cccc(Cl)c2F)CC1` [Example 18, trans-4-(3-chloro-2-fluorophenoxy)-N-methoxy-1-((6-(1,3-thiazol-2-ylamino)pyridin-2-yl)methyl)cyclohexanecarboxamide], the concentration for half-maximal inhibition (IC50) was 0.49 nM at human Aurora A, 200 nM in experiment [1] and 900 nM in experiment [2]. Also, in experiment [3], the inhibition at 0.1 µM is 7.4%. For the same compound, the inhibition at 0.3 µM in experiment [3] stood at 21.3%. Besides, the “Cell growth inhibitory effect … (%)” value turned out to be 61.5% in experiment [3] (setting [6]) and 77.4% in experiment [3] (setting [4]).

On to `O=c1[nH]nc([C@]2(Cc3cccc(Nc4cc[nH]n4)n3)CC[C@@H](Oc3cccc(Cl)c3F)CC2)o1` [Example 23, 5-(trans-4-(3-chloro-2-fluorophenoxy)-1-((6-(1H-pyrazol-3-ylamino)pyridin-2-yl)methyl)cyclohexyl)-1,3,4-oxadiazol-2(3H)-one], for which the IC50 on human Aurora A worked out at 0.39 nM; in experiment [1] it was 490 nM; in experiment [2], 760 nM. The inhibition at 0.1 µM in experiment [3] is 3.7%. Further, the inhibition at 0.3 µM in experiment [3] turned out to be 36%. In addition, the “Cell growth inhibitory effect … (%)” value in experiment [3] (setting [6]) is recorded as 71.5%; in experiment [3] (setting [4]) it was 87.4%.
